# In patent US11547681B2, “N-acylethanolamide derivatives and uses thereof” (ELIEM THERAPEUTICS, INC., priority 2016, dated 2023):
# Assays:
# [1] = in vitro; settings: both, human; for Concentration (μM) of analyte PEA, 0 min / Concentration (μM) of analyte PEA, 10 min / Concentration (μM) of analyte PEA, 20 min / Concentration (μM) of analyte PEA, 30 min / Concentration (μM) of analyte PEA, 60 min / % Remaining of Initial (n = 1), 0 min / % Remaining of Initial (n = 1), 10 min / % Remaining of Initial (n = 1), 20 min / % Remaining of Initial (n = 1), 30 min / % Remaining of Initial (n = 1), 60 min: 1 μM; for % Remaining of Initial (n = 1), 0 min: s9, 0 h; for % Remaining of Initial (n = 1), 10 min: s9, 10 min; for % Remaining of Initial (n = 1), 20 min: s9, 20 min; for % Remaining of Initial (n = 1), 30 min: s9, 0.5 h; for % Remaining of Initial (n = 1), 60 min: s9, 1 h; for microsomal CLint at 1 μM: s9, CLint (mL/min/mg protein); for half-life at 1 μM: s9, Half-life (min)
# Protocol: The reaction mixture, minus cofactors, was prepared as described below. The test article was added into the reaction mixture at a final concentration of 1 μM. […] An aliquot of the reaction mixture (without cofactor cocktail) was equilibrated in a shaking water bath at 37° C. for 3 minutes. The reaction was initiated by the addition of cofactor cocktail, and the mixture was incubated in a shaking water bath at 37° C. Aliquots (100 μL) were withdrawn at 0, 10, 20, 30, and 60 minutes. All samples were immediately combined with 400 uL of icecold 50/50 acetonitrile/H2O containing 0.1% formic acid and internal standard to terminate the reaction. The samples were then mixed and centrifuged to precipitate proteins. Calibration standards were prepared in matched matrix. All samples and standards were assayed by LC-MS/MS using electrospray ionization for both the dosed prodrug I-9 and the expected drug (PEA). Analytical conditions are outlined in Appendix 4-1. The test article concentration at each time point was compared to the test article concentration at time 0 to determine the percent remaining at each time point. Half-lives were calculated using GraphPad software, fitting to single-phase exponential decay equation.
# (§1) Reaction mixture, minus cofactors, was prepared as described below. Test article was added into the reaction mixture at a final concentration of 1 μM. […] An aliquot of the reaction mixture (without cofactor cocktail) was equilibrated in a shaking water bath at 37° C. for 3 minutes. The reaction was initiated by the addition of cofactor cocktail, and the mixture was incubated in a shaking water bath at 37° C. Aliquots (100 μL) were withdrawn at 0, 10, 20, 30, and 60 minutes. Test article samples were immediately combined with 300 μL of ice-cold acetonitrile containing 1% formic acid. Control samples were immediately combined with 400 μL of ice-cold 50/50 acetonitrile (ACN)/dH2O containing 0.1% formic acid and internal standard to terminate the reaction. Samples were then mixed and centrifuged to precipitate proteins. Calibration standards were prepared in matched matrix. Samples and standards were assayed by LC-MS/MS using electrospray ionization for both the dosed prodrug and the expected drug (PEA). Analytical conditions are outlined in Appendix 8-1. Test article concentration at each time point was compared to test article concentration at time 0 to determine the percent remaining at each time point. Halflives were calculated using GraphPad software, fitting to a single-phase exponential decay equation.
# as §1, with “for 5” for “for 3”, “minutes. Reaction” for “minutes. The reaction”, “and” for “and the”, “both” for “both the”, “Appendix 10-1.” for “Appendix 8-1.”
# Reaction mixture, minus cofactors, was prepared as described below.
# [2] = in vitro; settings: male, CD-1, mouse; for Concentration (μM) of analyte PEA, 0 min / Concentration (μM) of analyte PEA, 10 min / Concentration (μM) of analyte PEA, 20 min / Concentration (μM) of analyte PEA, 30 min / Concentration (μM) of analyte PEA, 60 min / % Remaining of Initial (n = 1), 0 min / % Remaining of Initial (n = 1), 10 min / % Remaining of Initial (n = 1), 20 min / % Remaining of Initial (n = 1), 30 min / % Remaining of Initial (n = 1), 60 min: 1 μM; for % Remaining of Initial (n = 1), 0 min: s9, 0 h; for % Remaining of Initial (n = 1), 10 min: s9, 10 min; for % Remaining of Initial (n = 1), 20 min: s9, 20 min; for % Remaining of Initial (n = 1), 30 min: s9, 0.5 h; for % Remaining of Initial (n = 1), 60 min: s9, 1 h; for microsomal CLint at 1 μM: s9, CLint (mL/min/mg protein); for half-life at 1 μM: s9, Half-life (min)
# Protocol: as §1
# as §1, with “for 5” for “for 3”, “minutes. Reaction” for “minutes. The reaction”, “and” for “and the”, “both” for “both the”, “Appendix 10-1.” for “Appendix 8-1.”
# Reaction mixture, minus cofactors, was prepared as described below. Test article was added into the reaction mixture at a final concentration of 1 μM. […] An aliquot of the reaction mixture (without cofactor cocktail) was equilibrated in a shaking water bath at 37° C. for 3 minutes. Reaction was initiated by the addition of cofactor cocktail, and the mixture was incubated in a shaking water bath at 37° C. Aliquots (100 μL) were withdrawn at 0, 10, 20, 30, and 60 minutes. Test article samples were immediately combined with 300 μL of ice-cold acetonitrile containing 1% formic acid. Control samples were immediately combined with 400 μL of ice-cold 50/50 acetonitrile (ACN)/dH2O containing 0.1% formic acid and internal standard to terminate the reaction. Samples were then mixed and centrifuged to precipitate proteins. Calibration standards were prepared in matched matrix. Samples and standards were assayed by LC-MS/MS using electrospray ionization for both dosed prodrug and expected drug (PEA). Analytical conditions are outlined in Appendix 13-1. Test article concentration at each time point was compared to test article concentration at time 0 to determine the percent remaining at each time point. Halflives were calculated using GraphPad software, fitting to a single-phase exponential decay equation.
# [3] = calculated value in parentheses
# [4] = calculated half-life in parentheses
"Concentration (μM) of analyte PEA, 0 min [1] [µM]","Concentration (μM) of analyte PEA, 10 min [1] [µM]","Concentration (μM) of analyte PEA, 20 min [1] [µM]","Concentration (μM) of analyte PEA, 30 min [1] [µM]","Concentration (μM) of analyte PEA, 60 min [1] [µM]","% Remaining of Initial (n = 1), 0 min [1] [%]","% Remaining of Initial (n = 1), 10 min [1] [%]","% Remaining of Initial (n = 1), 20 min [1] [%]","% Remaining of Initial (n = 1), 30 min [1] [%]","% Remaining of Initial (n = 1), 60 min [1] [%]","Concentration (μM) of analyte PEA, 0 min [2] [µM]","Concentration (μM) of analyte PEA, 10 min [2] [µM]","Concentration (μM) of analyte PEA, 20 min [2] [µM]","Concentration (μM) of analyte PEA, 30 min [2] [µM]","Concentration (μM) of analyte PEA, 60 min [2] [µM]","% Remaining of Initial (n = 1), 0 min [2] [%]","% Remaining of Initial (n = 1), 10 min [2] [%]","% Remaining of Initial (n = 1), 20 min [2] [%]","% Remaining of Initial (n = 1), 30 min [2] [%]","% Remaining of Initial (n = 1), 60 min [2] [%]",Structure (SMILES),further results
0.0089,0.023,0.043,0.056,0.072,100,109,103,82,70,0.12,0.14,0.17,0.15,0.17,100,62,69,61,53,CCCCC/C=C\C/C=C\CCCCCCCC(=O)OCCNC(=O)CCCCCCCCCCCCCCC [Compound I-6],"microsomal CLint at 1 μM [1]: < 11.6 µL/min/mg; microsomal CLint at 1 μM [1, 3]: 6.82 µL/min/mg; half-life at 1 μM [1]: > 1 h; half-life at 1 μM [1, 4]: 1.7 h; microsomal CLint at 1 μM [2]: < 11.6 µL/min/mg; microsomal CLint at 1 μM [2, 3]: 10.5 µL/min/mg; half-life at 1 μM [2]: > 1 h; half-life at 1 μM [2, 4]: 1.1 h"
0.090,0.46,0.62,0.63,0.48,100,46,22,9.8,3.8,0.033,0.24,0.29,0.39,0.38,100,59,35,27,5.7,CCCCCCCCCCCCCCCC(=O)NCCOC(=O)CCC(=O)OC[C@H]1O[C@@](CO)(O[C@H]2O[C@H](CO)[C@@H](O)[C@H](O)[C@H]2O)[C@@H](O)[C@@H]1O [Compound I-7],–

# Continued, compound first:
Structure (SMILES),"Concentration (μM) of analyte PEA, 0 min [1] [µM]","Concentration (μM) of analyte PEA, 10 min [1] [µM]","Concentration (μM) of analyte PEA, 20 min [1] [µM]","Concentration (μM) of analyte PEA, 30 min [1] [µM]","Concentration (μM) of analyte PEA, 60 min [1] [µM]","% Remaining of Initial (n = 1), 0 min [1] [%]","% Remaining of Initial (n = 1), 10 min [1] [%]","% Remaining of Initial (n = 1), 20 min [1] [%]","% Remaining of Initial (n = 1), 30 min [1] [%]","% Remaining of Initial (n = 1), 60 min [1] [%]","Concentration (μM) of analyte PEA, 0 min [2] [µM]","Concentration (μM) of analyte PEA, 10 min [2] [µM]","Concentration (μM) of analyte PEA, 20 min [2] [µM]","Concentration (μM) of analyte PEA, 30 min [2] [µM]","Concentration (μM) of analyte PEA, 60 min [2] [µM]","% Remaining of Initial (n = 1), 0 min [2] [%]","% Remaining of Initial (n = 1), 10 min [2] [%]","% Remaining of Initial (n = 1), 20 min [2] [%]","% Remaining of Initial (n = 1), 30 min [2] [%]","% Remaining of Initial (n = 1), 60 min [2] [%]",further results
CCCCCCCCCCCCCCCC(=O)NCCOC(=O)CCC [Compound I-2],0.011,0.057,0.075,0.067,0.11,100,73,41,28,9.6,0.52,0.50,0.52,0.45,0.45,100,<1.0,<1.0,<1.0,<1.0,microsomal CLint at 1 μM [2]: > 691 µL/min/mg; half-life at 1 μM [2]: < 0.0167 h
"CCCCCCCCCCCCCCCC(=O)NCCOC(=O)CCC(=O)OCC(COC(=O)CCCCCCC)OC(=O)CCCCCCC (centres unmarked) [Compound I-3, PEA-Succinate-Glycerol-Di-Caprylic]",0,0.0027,0.025,0.034,0.048,100,76,86,83,60,0,0.026,0.024,0.026,0.043,100,68,59,49,33,microsomal CLint at 1 μM [1]: < 11.6 µL/min/mg; half-life at 1 μM [1]: > 1 h; microsomal CLint at 1 μM [2]: 21.1 µL/min/mg; half-life at 1 μM [2]: 0.55 h
CC/C=C\C/C=C\C/C=C\C/C=C\C/C=C\CCCC(=O)OCCNC(=O)CCCCCCCCCCCCCCC [Compound I-5],0,0.050,0.063,0.074,0.10,100,82,49,38,45,0.050,0.11,0.076,0.093,0.14,100,68,67,66,49,microsomal CLint at 1 μM [1]: 21.6 µL/min/mg; half-life at 1 μM [1]: 0.533 h
